Data: the NIST ThermoML archive (doi:10.1021/je2010209)

Experiment: xn = mol fraction of the nth substance listed
Conditions: 101 kPa, Liquid; for speed of sound: Sing-around technique in a fixed-path interferometer; for mass density: Vibrating tube method

COCCOCCO [2-(2-methoxyethoxy)ethanol] + CCCCn1cc[n+](C)c1.F[B-](F)(F)F
Conditions	mass density [kg/m3]	speed of sound [m/s]
288.15 K, x2 = 0	1024.6	1451
288.15 K, x2 = 0.0308	1035.12	1461
288.15 K, x2 = 0.1053	1059.04	1490
288.15 K, x2 = 0.2065	1086.98	1514
288.15 K, x2 = 0.3137	1110.84	1533
288.15 K, x2 = 0.4002	1126.77	1544
288.15 K, x2 = 0.5035	1143.12	1559
288.15 K, x2 = 0.6083	1158.14	1568
288.15 K, x2 = 0.7023	1170.82	1575
288.15 K, x2 = 0.8291	1187.12	1580
288.15 K, x2 = 0.9381	1199.91	1583
293.15 K, x2 = 0	1020.2	1434
293.15 K, x2 = 0.0308	1030.69	1445
293.15 K, x2 = 0.1053	1054.73	1473
293.15 K, x2 = 0.2065	1082.85	1499
293.15 K, x2 = 0.3137	1106.71	1517
293.15 K, x2 = 0.4002	1122.56	1531
293.15 K, x2 = 0.5035	1138.99	1546
293.15 K, x2 = 0.6083	1154.16	1555
293.15 K, x2 = 0.7023	1167.07	1563
293.15 K, x2 = 0.8291	1183.25	1572
293.15 K, x2 = 0.9381	1196.01	1574
298.15 K, x2 = 0	1015.79	1416
298.15 K, x2 = 0.0308	1026.51	1428
298.15 K, x2 = 0.1053	1050.61	1457
298.15 K, x2 = 0.2065	1078.49	1483
298.15 K, x2 = 0.3137	1102.51	1503
298.15 K, x2 = 0.4002	1118.58	1518
298.15 K, x2 = 0.5035	1135.22	1533
298.15 K, x2 = 0.6083	1150.52	1543
298.15 K, x2 = 0.7023	1163.46	1551
298.15 K, x2 = 0.8291	1180	1560
298.15 K, x2 = 0.9381	1192.92	1563
303.15 K, x2 = 0	1011.36	1399
303.15 K, x2 = 0.0308	1022.02	1411
303.15 K, x2 = 0.1053	1046.36	1441
303.15 K, x2 = 0.2065	1074.58	1468
303.15 K, x2 = 0.3137	1098.6	1489
303.15 K, x2 = 0.4002	1114.55	1504
303.15 K, x2 = 0.5035	1131.18	1519
303.15 K, x2 = 0.6083	1146.73	1530
303.15 K, x2 = 0.7023	1160.08	1539
303.15 K, x2 = 0.8291	1176.92	1546
303.15 K, x2 = 0.9381	1189.62	1552
308.15 K, x2 = 0	1006.92	1382
308.15 K, x2 = 0.0308	1017.5	1395
308.15 K, x2 = 0.1053	1042	1425
308.15 K, x2 = 0.2065	1070.56	1453
308.15 K, x2 = 0.3137	1094.68	1474
308.15 K, x2 = 0.4002	1110.65	1490
308.15 K, x2 = 0.5035	1127.3	1506
308.15 K, x2 = 0.6083	1142.95	1517
308.15 K, x2 = 0.7023	1156.36	1526
308.15 K, x2 = 0.8291	1173.24	1534
308.15 K, x2 = 0.9381	1185.91	1540
313.15 K, x2 = 0	1002.47	1366
313.15 K, x2 = 0.0308	1013.14	1378
313.15 K, x2 = 0.1053	1037.68	1409
313.15 K, x2 = 0.2065	1066.49	1437
313.15 K, x2 = 0.3137	1090.91	1460
313.15 K, x2 = 0.4002	1107.01	1477
313.15 K, x2 = 0.5035	1123.64	1493
313.15 K, x2 = 0.6083	1139.19	1505
313.15 K, x2 = 0.7023	1152.49	1514
313.15 K, x2 = 0.8291	1169.38	1523
313.15 K, x2 = 0.9381	1182.2	1529
318.15 K, x2 = 0	998.009	1349
318.15 K, x2 = 0.0308	1008.9	1362
318.15 K, x2 = 0.1053	1033.44	1393
318.15 K, x2 = 0.2065	1062	1422
318.15 K, x2 = 0.3137	1086.38	1447
318.15 K, x2 = 0.4002	1102.75	1464
318.15 K, x2 = 0.5035	1119.79	1480
318.15 K, x2 = 0.6083	1135.51	1494
318.15 K, x2 = 0.7023	1148.84	1503
318.15 K, x2 = 0.8291	1165.68	1512
318.15 K, x2 = 0.9381	1178.57	1519

COCCO [2-methoxyethan-1-ol] + CCCCn1cc[n+](C)c1.F[B-](F)(F)F
Conditions	mass density [kg/m3]	speed of sound [m/s]
288.15 K, x2 = 0	969.794	1380
288.15 K, x2 = 0.0509	1000.6	1411
288.15 K, x2 = 0.1092	1030.06	1438
288.15 K, x2 = 0.2052	1068.45	1474
288.15 K, x2 = 0.3071	1099.91	1500
288.15 K, x2 = 0.4025	1123.36	1521
288.15 K, x2 = 0.5116	1145.2	1539
288.15 K, x2 = 0.6257	1164.11	1553
288.15 K, x2 = 0.7153	1176.88	1565
288.15 K, x2 = 0.8088	1188.61	1574
288.15 K, x2 = 0.9155	1199.86	1582
293.15 K, x2 = 0	965.063	1367
293.15 K, x2 = 0.0509	996.158	1394
293.15 K, x2 = 0.1092	1025.74	1422
293.15 K, x2 = 0.2052	1064.33	1460
293.15 K, x2 = 0.3071	1095.87	1486
293.15 K, x2 = 0.4025	1119.42	1508
293.15 K, x2 = 0.5116	1141.38	1527
293.15 K, x2 = 0.6257	1160.35	1542
293.15 K, x2 = 0.7153	1173.17	1554
293.15 K, x2 = 0.8088	1184.96	1563
293.15 K, x2 = 0.9155	1196.25	1571
298.15 K, x2 = 0	960.447	1351
298.15 K, x2 = 0.0509	991.715	1378
298.15 K, x2 = 0.1092	1021.41	1406
298.15 K, x2 = 0.2052	1060.08	1446
298.15 K, x2 = 0.3071	1091.76	1472
298.15 K, x2 = 0.4025	1115.42	1494
298.15 K, x2 = 0.5116	1137.55	1514
298.15 K, x2 = 0.6257	1156.59	1530
298.15 K, x2 = 0.7153	1169.47	1542
298.15 K, x2 = 0.8088	1181.31	1551
298.15 K, x2 = 0.9155	1192.64	1560
303.15 K, x2 = 0	955.825	1337
303.15 K, x2 = 0.0509	987.145	1361
303.15 K, x2 = 0.1092	1017.07	1391
303.15 K, x2 = 0.2052	1056.15	1431
303.15 K, x2 = 0.3071	1087.96	1457
303.15 K, x2 = 0.4025	1111.59	1480
303.15 K, x2 = 0.5116	1133.65	1501
303.15 K, x2 = 0.6257	1152.84	1517
303.15 K, x2 = 0.7153	1165.77	1530
303.15 K, x2 = 0.8088	1177.66	1539
303.15 K, x2 = 0.9155	1189.04	1548
308.15 K, x2 = 0	951.214	1321
308.15 K, x2 = 0.0509	982.765	1344
308.15 K, x2 = 0.1092	1012.72	1375
308.15 K, x2 = 0.2052	1051.85	1415
308.15 K, x2 = 0.3071	1083.79	1443
308.15 K, x2 = 0.4025	1107.66	1467
308.15 K, x2 = 0.5116	1129.9	1488
308.15 K, x2 = 0.6257	1149.1	1505
308.15 K, x2 = 0.7153	1162.09	1517
308.15 K, x2 = 0.8088	1174.01	1526
308.15 K, x2 = 0.9155	1185.43	1536
313.15 K, x2 = 0	946.562	1304
313.15 K, x2 = 0.0509	978.381	1328
313.15 K, x2 = 0.1092	1008.49	1359
313.15 K, x2 = 0.2052	1047.68	1400
313.15 K, x2 = 0.3071	1079.71	1430
313.15 K, x2 = 0.4025	1103.68	1453
313.15 K, x2 = 0.5116	1126.04	1475
313.15 K, x2 = 0.6257	1145.37	1492
313.15 K, x2 = 0.7153	1158.41	1505
313.15 K, x2 = 0.8088	1170.38	1514
313.15 K, x2 = 0.9155	1181.84	1525
318.15 K, x2 = 0	941.864	1287
318.15 K, x2 = 0.0509	973.683	1311
318.15 K, x2 = 0.1092	1004.01	1343
318.15 K, x2 = 0.2052	1043.46	1383
318.15 K, x2 = 0.3071	1075.71	1415
318.15 K, x2 = 0.4025	1099.79	1440
318.15 K, x2 = 0.5116	1122.25	1461
318.15 K, x2 = 0.6257	1141.63	1479
318.15 K, x2 = 0.7153	1154.74	1492
318.15 K, x2 = 0.8088	1166.72	1502
318.15 K, x2 = 0.9155	1178.23	1513
